Where a name gives a salt, the structure may show the parent alone. Read-outs that look alike come from different tables or passages of the source.
Key:
[1] = tested on: NCI-H292 lung cancer cells; assay: FDA drug screening, complete media vs cholesterol-free media without statin (TABLE 1); format: cell-based, human
[2] = tested on: NCI-H292 lung cancer cells; assay: FDA drug screening, complete media vs cholesterol-free media with simvastatin (TABLE 2); format: cell-based, human
[3] = Complete minus Cholesterol-free, […]
[4] = NCI-H292 cells, FDA drug library screen, cholesterol-free media without statin
[5] = NCI-H292 cells, FDA drug library screen, complete media
[6] = NCI-H292 cells, cholesterol-free media with simvastatin 0.04 μM, FDA drug library screen (TABLE 2)
[7] = NCI-H292 cells, complete media, FDA drug library screen (TABLE 2)
[8] = complete media minus cholesterol-free media + simvastatin (0.04 μM), […]
[9] = Complete minus Cholesterol-free, >0 enhanced anti-cancer activity, about 0 neutral, <0 antagonist
[10] = NCI-H292 cells, cholesterol-free media without statin, FDA drug library screen
[11] = NCI-H292 cells, complete media, FDA drug library screen
[12] = complete media minus cholesterol-free media + simvastatin (0.04 μM), >0 enhanced anti-cancer activity, about 0 neutral, <0 antagonist
[13] = Complete minus Cholesterol-free, greater than 0 enhanced anti-cancer activity, about 0 neutral, below 0 antagonist
[14] = NCI-H292 cells, drug in cholesterol-free media with simvastatin 0.04 μM
[15] = NCI-H292 cells, drug in complete media
[16] = complete media vs cholesterol-free media + simvastatin (0.04 μM), >0 enhanced anti-cancer activity, about 0 neutral, <0 antagonist
[17] = Complete minus Cholesterol-free, greater than 0 enhanced anti-cancer activity, about 0 neutral, below 0 antagonists
[18] = NCI-H292 cells in cholesterol-free media without statin
[19] = NCI-H292 cells in complete media
[20] = NCI-H292 cells, cholesterol-free media with simvastatin 0.04 μM, cell growth value in FDA drug screen
[21] = NCI-H292 cells, complete media, cell growth value in FDA drug screen
[22] = complete media minus cholesterol-free media + simvastatin, >0 enhanced anti-cancer activity, about 0 neutral, <0 antagonist
[23] = complete vs cholesterol-free media, >0 enhanced anti-cancer activity, about 0 neutral, <0 antagonist
[24] = NCI-H292 cells, FDA drug library screen, cholesterol-free media with simvastatin 0.04 μM
[25] = NCI-H292 cells, FDA library drug in cholesterol-free media with simvastatin 0.04 μM
[26] = NCI-H292 cells, FDA library drug in complete media
[27] = NCI-H292 cells, cholesterol-free media without statin

## COC(=O)N[C@H](C(=O)N1CCC[C@H]1C(=O)Nc1ccc([C@@H]2CC[C@@H](c3ccc(NC(=O)[C@@H]4CCCN4C(=O)[C@@H](NC(=O)OC)C(C)C)cc3)N2c2ccc(C(C)(C)C)cc2)cc1)C(C)C [Ombitasvir]
[1]; [3]
  Difference: −0.17
[1]; [4]
  Cholesterol-free: 1.001
[1]; [5]
  Complete: 0.8331
[2]; [6]
  Cholesterol-free media + simvastatin (0.04 μM): 0.6017
[2]; [7]
  Complete Media: 0.5358
[2]; [8]
  Difference: −0.07

## COc1ccc2[n-]c([S+]([O-])Cc3ncc(C)c(OC)c3C)nc2c1.[Na+] (centres unmarked) [Omeprazole (sodium)]
[1]; [9]
  Difference: −0.07
[1]; [10]
  Cholesterol-free: 0.7641
[1]; [11]
  Complete: 0.6989
[2]; [6]
  Cholesterol-free media + simvastatin (0.04 μM): 0.9544
[2]; [7]
  Complete Media: 0.9688
[2]; [12]
  Difference: 0.01

## COc1ccc2[nH]c([S+]([O-])Cc3ncc(C)c(OC)c3C)nc2c1 (centres unmarked) [Omeprazole]
[1]; [13]
  Difference: −0.12
[1]; [4]
  Cholesterol-free: 0.995
[1]; [5]
  Complete: 0.8798
[2]; [14]
  Cholesterol-free media + simvastatin (0.04 μM): 0.8585
[2]; [15]
  Complete Media: 0.6883
[2]; [16]
  Difference: −0.17

## CC(C)OC(=O)CNc1cccc(CN(Cc2ccc(-n3cccn3)cc2)S(=O)(=O)c2cccnc2)n1 [Omidenepag isopropyl]
[1]; [17]
  Difference: −0.75
[1]; [18]
  Cholesterol-free: 1.563
[1]; [19]
  Complete: 0.8153
[2]; [20]
  Cholesterol-free media + simvastatin (0.04 μM): 1.236
[2]; [21]
  Complete Media: 1.286
[2]; [22]
  Difference: 0.05

## Cc1nccn1CC1CCc2c(c3ccccc3n2C)C1=O (centres unmarked) [Ondansetron]
[1]; [9]
  Difference: −0.05
[1]; [10]
  Cholesterol-free: 1.168
[1]; [11]
  Complete: 1.123
[2]; [6]
  Cholesterol-free media + simvastatin (0.04 μM): 1.019
[2]; [7]
  Complete Media: 0.948
[2]; [12]
  Difference: −0.07

## Cc1c(Cl)c(C)[n+]([O-])c(Cl)c1-c1noc(-c2cc(O)c(O)c([N+](=O)[O-])c2)n1 [Opicapone]
[1]; [13]
  Difference: −0.13
[1]; [4]
  Cholesterol-free: 0.8861
[1]; [5]
  Complete: 0.7591
[2]; [6]
  Cholesterol-free media + simvastatin (0.04 μM): 0.9346
[2]; [7]
  Complete Media: 0.8971
[2]; [12]
  Difference: −0.04

## CCCCCCCCCCC[C@@H](C[C@@H]1OC(=O)[C@H]1CCCCCC)OC(=O)[C@H](CC(C)C)NC=O [Orlistat]
[1]; [10]
  Cholesterol-free: 1.018
[1]; [11]
  Complete: 1.513
[1]; [23]
  Difference: 0.49
[2]; [24]
  Cholesterol-free media + simvastatin (0.04 μM): 1.19
[2]; [5]
  Complete Media: 1.622
[2]; [22]
  Difference: 0.43

## Cc1ncc([N+](=O)[O-])n1CC(O)CCl (centres unmarked) [Ornidazole (Levo-)]
[1]; [17]
  Difference: −0.58
[1]; [18]
  Cholesterol-free: 1.634
[1]; [19]
  Complete: 1.058
[2]; [20]
  Cholesterol-free media + simvastatin (0.04 μM): 0.9725
[2]; [21]
  Complete Media: 1.072
[2]; [22]
  Difference: 0.10

## Cc1ncc([N+](=O)[O-])n1CC(O)CCl (centres unmarked) [Ornidazole]
[1]; [10]
  Cholesterol-free: 0.6543
[1]; [11]
  Complete: 1.082
[1]; [23]
  Difference: 0.43
[2]; [14]
  Cholesterol-free media + simvastatin (0.04 μM): 1.385
[2]; [15]
  Complete Media: 1.209
[2]; [16]
  Difference: −0.18

## NCCC[C@H](NC(=O)[C@@H]1CCCN1C(=O)[C@@H]1CSSC[C@H](N)C(=O)N[C@@H](Cc2ccc(O)cc2)C(=O)N[C@@H](Cc2ccccc2)C(=O)N[C@@H](CCC(N)=O)C(=O)N[C@@H](CC(N)=O)C(=O)N1)C(=O)NCC(N)=O [Ornipressin]
[1]; [3]
  Difference: 0.03
[1]; [10]
  Cholesterol-free: 1.024
[1]; [11]
  Complete: 1.051
[2]; [25]
  Cholesterol-free media + simvastatin (0.04 μM): 1.553
[2]; [26]
  Complete Media: 0.7895
[2]; complete media vs cholesterol-free media + simvastatin (0.04 μM), […]
  Difference: −0.76

## O=C(O)c1cc(=O)[nH]c(=O)[nH]1 [Orotic acid]
[1]; [9]
  Difference: −0.23
[1]; [27]
  Cholesterol-free: 1.001
[1]; NCI-H292 cells, complete media
  Complete: 0.7657
[2]; [20]
  Cholesterol-free media + simvastatin (0.04 μM): 1.191
[2]; [21]
  Complete Media: 1.261
[2]; [22]
  Difference: 0.07

## O=C(Nc1ccc(O)cc1)c1ccccc1O [Osalmid]
[1]; [10]
  Cholesterol-free: 1.209
[1]; [11]
  Complete: 1.432
[1]; [23]
  Difference: 0.22
[2]; [6]
  Cholesterol-free media + simvastatin (0.04 μM): 0.9033
[2]; [7]
  Complete Media: 0.8951
[2]; [12]
  Difference: −0.01

## CCC(CC)O[C@@H]1C=C(C(=O)O)C[C@H](N)[C@H]1NC(C)=O [Oseltamivir acid]
[1]; [27]
  Cholesterol-free: 1.419
[1]; NCI-H292 cells, complete media
  Complete: 0.9754
[1]; complete vs cholesterol-free media, greater than 0 enhanced anti-cancer activity, about 0 neutral, below 0 antagonists
  Difference: −0.44
[2]; [20]
  Cholesterol-free media + simvastatin (0.04 μM): 0.944
[2]; [21]
  Complete Media: 1.053
[2]; [22]
  Difference: 0.11

## N#Cc1ccc([C@H]2CCc3cncn32)c(F)c1 [Osilodrostat]
[1]; [17]
  Difference: −0.71
[1]; [18]
  Cholesterol-free: 1.647
[1]; [19]
  Complete: 0.935
[2]; [24]
  Cholesterol-free media + simvastatin (0.04 μM): 1.26
[2]; [16]
  Difference: −0.11

## C=CC(=O)Nc1cc(Nc2nccc(-c3cn(C)c4ccccc34)n2)c(OC)cc1N(C)CCN(C)C [Osimertinib]
[1]; [13]
  Difference: −0.14
[1]; [4]
  Cholesterol-free: 0.477
[1]; [5]
  Complete: 0.3332
[2]; [20]
  Cholesterol-free media + simvastatin (0.04 μM): 0.2666
[2]; [21]
  Complete Media: 0.3123
[2]; [22]
  Difference: 0.05

## OCCOc1ccc(/C(=C(/CCCl)c2ccccc2)c2ccccc2)cc1 [Ospemifene]
[1]
  Cholesterol-free: 1.029
  Complete: 1.255
  Difference: 0.23
[2]
  Cholesterol-free media + simvastatin (0.04 μM): 1.909
  Complete Media: 1.222
  Difference: −0.69

## CCCCCCCCOc1ccccc1C(=O)Nc1ccc(C(=O)OCC[N+](C)(CC)CC)cc1.[Br-] [Otilonium (bromide)]
[1]
  Cholesterol-free: 1.132
  Complete: 0.8071
  Difference: −0.32
[2]
  Cholesterol-free media + simvastatin (0.04 μM): 0.9764
  Complete Media: 1.024
  Difference: 0.05

## C[C@@H]1O[C@@H](O[C@H]2C[C@@H](O)[C@]3(CO)[C@H]4[C@H](O)C[C@]5(C)[C@@H](C6=CC(=O)OC6)CC[C@]5(O)[C@@H]4CC[C@]3(O)C2)[C@H](O)[C@H](O)[C@H]1O.O.O.O.O.O.O.O.O [Ouabain (Octahydrate)]
[1]; [3]
  Difference: 0.01
[1]; [10]
  Cholesterol-free: −0.009774
[1]; [11]
  Complete: −0.0006686
[2]; [6]
  Cholesterol-free media + simvastatin (0.04 μM): 0.0005446
[2]; [7]
  Complete Media: −0.01106
[2]; [8]
  Difference: −0.01

## CC(=O)N1C[C@H](O)C[C@H]1C(=O)O [Oxaceprol]
[1]; [9]
  Difference: −0.27
[1]; [27]
  Cholesterol-free: 0.9566
[1]; NCI-H292 cells, complete media
  Complete: 0.6838
[2]; [6]
  Cholesterol-free media + simvastatin (0.04 μM): 0.8786
[2]; [7]
  Complete Media: 0.8552
[2]; [12]
  Difference: −0.02

## Cc1onc(-c2ccccc2)c1C(=O)N[C@@H]1C(=O)N2[C@@H]1SC(C)(C)[C@@H]2C(=O)O [Oxacillin (sodium monohydrate)]
[1]; [9]
  Difference: −0.02
[1]; [10]
  Cholesterol-free: 0.9255
[1]; [11]
  Complete: 0.9062
[2]; [25]
  Cholesterol-free media + simvastatin (0.04 μM): 1.304
[2]; [26]
  Complete Media: 1.035
[2]; [16]
  Difference: −0.27

## CN1CCCN=C1/C=C/c1cccc(O)c1.O=C(O)c1cc2ccccc2c(Cc2c(O)c(C(=O)O)cc3ccccc23)c1O [Oxantel (pamoate)]
[1]; [17]
  Difference: −0.51
[1]; [18]
  Cholesterol-free: 1.526
[1]; [19]
  Complete: 1.019
[2]; [24]
  Cholesterol-free media + simvastatin (0.04 μM): 0.9072
[2]; [5]
  Complete Media: 1.051
[2]; [22]
  Difference: 0.14

## O=C(O)CCc1nc(-c2ccccc2)c(-c2ccccc2)o1 [Oxaprozin]
[1]; [13]
  Difference: −0.11
[1]; [4]
  Cholesterol-free: 1.125
[1]; [5]
  Complete: 1.011
[2]; [6]
  Cholesterol-free media + simvastatin (0.04 μM): 0.8941
[2]; [7]
  Complete Media: 0.904
[2]; [12]
  Difference: 0.01

## NC(=O)N1c2ccccc2CC(=O)c2ccccc21 [Oxcarbazepine]
[1]; [10]
  Cholesterol-free: 0.8341
[1]; [11]
  Complete: 1.538
[1]; [23]
  Difference: 0.70
[2]; [25]
  Cholesterol-free media + simvastatin (0.04 μM): 1.305
[2]; [26]
  Complete Media: 0.9097
[2]; [16]
  Difference: −0.40

## CN(C(=O)CN(CCO)CC(=O)N(C)C(C)(C)Cc1ccccc1)C(C)(C)Cc1ccccc1 [Oxethazaine]
[1]; [17]
  Difference: −1.45
[1]; [18]
  Cholesterol-free: 2.442
[1]; [19]
  Complete: 0.9966
[2]; [24]
  Cholesterol-free media + simvastatin (0.04 μM): 1.131
[2]; [5]
  Complete Media: 0.9874
[2]; [16]
  Difference: −0.14

## Clc1ccc(CO/N=C(\Cn2ccnc2)c2ccc(Cl)cc2Cl)c(Cl)c1 [Oxiconazole nitrate]
[1]; [9]
  Difference: 0.00
[1]; [10]
  Cholesterol-free: 0.7425
[1]; [11]
  Complete: 0.7401
[2]; [24]
  Cholesterol-free media + simvastatin (0.04 μM): 0.3071
[2]; [5]
  Complete Media: 1.067
[2]; [22]
  Difference: 0.76

## NC(=O)CN1CC(O)CC1=O (centres unmarked) [Oxiracetam]
[1]; [9]
  Difference: −0.22
[1]; [27]
  Cholesterol-free: 1.104
[1]; NCI-H292 cells, complete media
  Complete: 0.8826
[2]; [25]
  Cholesterol-free media + simvastatin (0.04 μM): 1.234
[2]; [26]
  Complete Media: 0.9456
[2]; [16]
  Difference: −0.29

## C=CCOc1ccccc1OCC(O)CNC(C)C (centres unmarked) [Oxprenolol (hydrochloride)]
[1]; [10]
  Cholesterol-free: 1.177
[1]; [11]
  Complete: 1.262
[1]; [23]
  Difference: 0.09
[2]; [20]
  Cholesterol-free media + simvastatin (0.04 μM): 0.8718
[2]; [21]
  Complete Media: 0.9135
[2]; [22]
  Difference: 0.04
